Measured values published in patent publication US12448368B2, “Indole compounds as androgen receptor modulators” (NIDO BIOSCIENCES, INC., priority 2020, dated 2025).

Target: T1, androgen receptor (AR) (Homo sapiens, UniProt P10275, T878A)
T1 construct: LNCaP cells expressing ARR2PB-FireflyLuc and CMV-RenillaLuc; endogenous in cells; host or cells: LNCaP cells carrying ARR2PB-FireflyLuc and CMV-RenillaLuc reporters
T1 sequence (P10275 1-920 T878A): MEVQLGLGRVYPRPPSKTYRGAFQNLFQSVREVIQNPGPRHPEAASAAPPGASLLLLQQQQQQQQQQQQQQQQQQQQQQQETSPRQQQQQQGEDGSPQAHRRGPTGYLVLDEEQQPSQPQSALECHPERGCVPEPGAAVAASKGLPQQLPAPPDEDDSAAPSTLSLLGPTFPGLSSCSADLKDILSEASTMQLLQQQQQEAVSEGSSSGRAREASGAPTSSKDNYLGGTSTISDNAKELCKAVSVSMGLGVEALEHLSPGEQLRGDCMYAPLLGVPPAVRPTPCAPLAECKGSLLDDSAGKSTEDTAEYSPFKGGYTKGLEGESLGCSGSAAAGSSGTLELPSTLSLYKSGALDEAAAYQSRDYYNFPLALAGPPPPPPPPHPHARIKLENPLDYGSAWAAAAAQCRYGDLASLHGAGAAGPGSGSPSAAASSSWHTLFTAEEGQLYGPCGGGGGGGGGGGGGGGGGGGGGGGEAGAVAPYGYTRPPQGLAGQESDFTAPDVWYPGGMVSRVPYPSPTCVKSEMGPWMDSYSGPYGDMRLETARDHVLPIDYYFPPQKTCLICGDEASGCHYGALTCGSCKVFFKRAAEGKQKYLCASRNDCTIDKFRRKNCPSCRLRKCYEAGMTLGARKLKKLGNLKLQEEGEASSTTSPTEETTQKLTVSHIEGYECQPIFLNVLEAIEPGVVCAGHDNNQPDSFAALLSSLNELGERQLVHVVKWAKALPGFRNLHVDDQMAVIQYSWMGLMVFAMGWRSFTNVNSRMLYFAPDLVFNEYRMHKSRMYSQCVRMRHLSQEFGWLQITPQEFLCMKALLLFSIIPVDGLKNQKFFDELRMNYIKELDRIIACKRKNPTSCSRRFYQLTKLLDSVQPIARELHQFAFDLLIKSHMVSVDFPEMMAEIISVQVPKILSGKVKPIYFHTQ
Assay: AR reporter assay in LNCaP cells expressing ARR2PB-FireflyLuc and CMV-RenillaLuc, antagonist mode (% remaining activity, IC50)
Type: cell-based
Conditions: 48 h at 37° C., class symbols A-D, read-out: IC50
Summary of the method: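 LNCaP cells carrying ARR2PB-firefly and CMV-Renilla luciferase reporters were treated 48 h at 37 °C with compound plus 0.5 nM DHT. Signals were normalised between 0.5 nM DHT alone and 10 uM enzalutamide + DHT to give % remaining activity, and IC50 was obtained by non-linear regression.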

SMILES | IC50 [nM]
CC(=O)N1CCC(Oc2ccc(-c3c[nH]c4c(C#N)cccc34)nc2C(F)(F)F)C1 (stereo not shown) [Compound 262] | 100 to 1000
CC(=O)N(C)CCOc1ncc(-c2c[nH]c3c(Cl)cccc23)nc1C [Compound 263] | 100 to 1000
CC1(C)NC(=O)c2ccc(-c3c[nH]c4c(C#N)cccc34)cc21 [Compound 264] | 100 to 1000
COc1nc(-c2c[nH]c3c(C#N)cccc23)cnc1NC1CCN(C(C)=O)C1 (stereo not shown) [Compound 265] | < 100
CC1(CO)NC(=O)c2ccc(-c3c[nH]c4c(C#N)cccc34)nc21 (stereo not shown) [Compound 266] | > 10000
CCc1nc(-c2c[nH]c3c(C#N)cccc23)cnc1OCCN [Compound 267] | > 10000
CCc1nc(-c2c[nH]c3c(C#N)cccc23)cnc1OC1CCN(C(C)=O)C1 (stereo not shown) [Compound 268] | 100 to 1000
CC(=O)N1CCC(Oc2ncc(-c3c[nH]c4c(C#N)cccc34)nc2C(F)(F)F)C1 (stereo not shown) [Compound 269] | 100 to 1000
CC1(C)NC(=O)c2cnc(-c3c[nH]c4c(C#N)cccc34)cc21 [Compound 270] | > 10000
CC1(C)NC(=O)c2ncc(-c3c[nH]c4c(C#N)cccc34)cc21 [Compound 271] | > 10000
CC(=O)N1C[C@@H](F)[C@H](Oc2ncc(-c3c[nH]c4c(C#N)cccc34)nc2C)C1 [Compound 272] | 100 to 1000
Cc1nc(-c2c[nH]c3c(Cl)cccc23)cnc1O[C@@H]1CNC[C@H]1F [Compound 273] | 100 to 1000
Cc1nc(-c2c[nH]c3c(C#N)cccc23)cnc1OC1CC(N)C1 (stereo not shown) [Compound 274] | 100 to 1000
Cc1nc(-c2c[nH]c3c(C#N)cccc23)cnc1OC1CCC(N)C1 (stereo not shown) [Compound 275] | > 10000
CC(=O)N1CCC(Oc2ncc(-c3n[nH]c4c(Cl)cccc34)nc2C)C1 (stereo not shown) [Compound 276] | 100 to 1000
Cc1nc(-c2n[nH]c3c(Cl)cccc23)cnc1OC1CCNC1 (stereo not shown) [Compound 277] | 100 to 1000
COc1nc(-c2c[nH]c3c(C#N)cccc23)cnc1OC1CCN(C(C)=O)C1 (stereo not shown) [Compound 278] | 1000 to 10000
Cc1nc(-c2c[nH]c3c(C#N)cccc23)cnc1NCC(C)(C)O [Compound 279] | 100 to 1000
COc1nc(-c2c[nH]c3c(C#N)cccc23)cnc1NCC(C)(C)O [Compound 280] | 100 to 1000
Cc1nc(-c2c[nH]c3c(C#N)cccc23)cnc1SC1CCNC1 (stereo not shown) [Compound 281] | 1000 to 10000
N#Cc1cccc2c(-c3cnc(OC4CCNC4)c(C4CC4)n3)c[nH]c12 (stereo not shown) [Compound 282] | 1000 to 10000
Cc1nc(-c2c[nH]c3c(C#N)cccc23)cnc1OC1CCNC1(C)C (stereo not shown) [Compound 283] | > 10000
Cc1nc(-c2c[nH]c3c(C#N)cccc23)cnc1OC1CNC(C)(C)C1 (stereo not shown) [Compound 284] | > 10000
Cc1nc(-c2c[nH]c3c(C#N)cccc23)cnc1O[C@H]1CCN[C@@H]1C [Compound 285] | 1000 to 10000
Cc1nc(-c2c[nH]c3c(C#N)cccc23)cnc1OCC(C)(C)N [Compound 286] | 1000 to 10000
Cc1nc(-c2c[nH]c3c(C#N)cccc23)cnc1OC(C)CN (stereo not shown) [Compound 287] | 100 to 1000

SMILES | IC50 [nM]
COc1nc(-c2c[nH]c3c(C#N)cccc23)cnc1N[C@H]1CCN(C(C)=O)C1 [Compound 288] | < 100
COc1nc(-c2c[nH]c3c(C#N)cccc23)cnc1N[C@@H]1CCN(C(C)=O)C1 [Compound 289] | < 100
CC(=O)N1CCC(Oc2cnc(-c3c[nH]c4c(C#N)cccc34)cn2)C1 (stereo not shown) [Compound 290] | 1000 to 10000
CC(=O)N1CCC(Oc2ncc(-c3c[nH]c4c(F)cccc34)nc2C)C1 (stereo not shown) [Compound 291] | 100 to 1000
CC(=O)N1CCC(Oc2ncc(-c3c[nH]c4ncccc34)nc2C)C1 (stereo not shown) [Compound 292] | > 10000
COc1nc(-c2c[nH]c3ncccc23)cnc1NC1CCN(C(C)=O)C1 (stereo not shown) [Compound 293] | > 10000
COc1nc(-c2c[nH]c3c(C#N)cccc23)cnc1N(C)C1CCN(C(C)=O)C1 (stereo not shown) [Compound 294] | 100 to 1000
CC1(C)NC(=O)c2ccc(-c3c[nH]c4c(F)cccc34)nc21 [Compound 295] | 100 to 1000
Cc1nc(-c2c[nH]c3c(Cl)cccc23)cnc1OC1CCNC1 (stereo not shown) [Compound 296] | < 100
Cc1nc(-c2c[nH]c3c(C#N)cccc23)cnc1O[C@@H]1CNC[C@@H]1F [Compound 297] | 100 to 1000
Cc1nc(-c2c[nH]c3c(=O)n(C)ccc23)ccc1OC1CCNC1 (stereo not shown) [Compound 300] | > 10000
Cc1nc(-c2c[nH]c3c(C#N)cccc23)cnc1OCC(C)(C)O [Compound 301] | < 100
Cc1nc(-c2c[nH]c3c(C#N)cccc23)cnc1OC(C)CN (stereo not shown) [Compound 303] | 100 to 1000
CCc1nc(-c2c[nH]c3c(C#N)cccc23)cnc1OC1CCNC1 (stereo not shown) [Compound 305] | > 10000
COc1nc(-c2c[nH]c3c(C#N)cccc23)cnc1OC1CCN(C(C)=O)C1 (stereo not shown) [Compound 306] | 1000 to 10000
CSc1nc(-c2c[nH]c3c(C#N)cccc23)cnc1OC1CCNC1 (stereo not shown) [Compound 307] | > 10000
Cc1nc(-c2c[nH]c3c(C#N)cccc23)cnc1OC1(C)CCNC1 (stereo not shown) [Compound 308] | 1000 to 10000
Cc1nc(-c2coc3cc(F)ccc23)cnc1N [Compound 309] | 100 to 1000
Cc1nc(-c2coc3c(C#N)cccc23)cnc1N [Compound 310] | > 10000
CC(=O)N1CCC(Oc2ncc(-c3c[nH]c4cccnc34)nc2C)C1 (stereo not shown) [Compound 311] | > 10000
CC(=O)N1CCC(Oc2ncc(-c3n[nH]c4c(C#N)cccc34)nc2C)C1 (stereo not shown) [Compound 312] | 1000 to 10000
CC(=O)N1CCC(Oc2ncc(-c3c[nH]c4c(C)cccc34)nc2C)C1 (stereo not shown) [Compound 313] | 1000 to 10000
Cc1cccc2c(-c3ccc4c(n3)C(C)(C)NC4=O)c[nH]c12 [Compound 314] | 100 to 1000
CC1(C)NC(=O)c2ccc(-c3c[nH]c4ncccc34)nc21 [Compound 315] | 100 to 1000
COc1nc(-c2c[nH]c3c(C#N)cccc23)ccc1C(N)=O [Compound 316] | > 10000

Second part, the compound after the results:

IC50 [nM] | SMILES
1000 to 10000 | COCCN1CCC(Oc2ncc(-c3c[nH]c4c(C#N)cccc34)nc2C)C1 (stereo not shown) [Compound 317]
100 to 1000 | COCC(=O)N1CCC(Oc2ncc(-c3c[nH]c4c(C#N)cccc34)nc2C)C1 (stereo not shown) [Compound 318]
1000 to 10000 | Cc1nc(-c2c[nH]c3c(C#N)cccc23)cnc1OC1CNCC1(F)F (stereo not shown) [Compound 322]
100 to 1000 | CC(=O)N1CC(Oc2ncc(-c3c[nH]c4c(C#N)cccc34)nc2C)C(F)(F)C1 (stereo not shown) [Compound 323]
1000 to 10000 | Cc1nc(-c2c[nH]c3c(C#N)cccc23)ccc1OCC(C)(C)O [Compound 324]
100 to 1000 | Cc1nc(-c2c[nH]c3c(C#N)cccc23)cnc1OCC1(C)COC1 [Compound 325]
1000 to 10000 | Cc1nc(-c2c[nH]c3c(C#N)cccc23)cnc1N(C)CC(C)(C)O [Compound 326]
1000 to 10000 | CCN(CC(C)(C)O)c1ncc(-c2c[nH]c3c(C#N)cccc23)nc1C [Compound 327]
> 10000 | Cc1nc(-c2c[nH]c3c(C#N)cccc23)cnc1O[C@H]1CN[C@@H](C)C1 [Compound 328]
> 10000 | Cc1nc(-c2c[nH]c3c(C#N)cccc23)cnc1O[C@H]1CN[C@H](C)C1 [Compound 329]
> 10000 | Cc1nc(-c2c[nH]c3c(C#N)cccc23)cnc1O[C@@H]1CN[C@@H](C)C1 [Compound 330]
> 10000 | Cc1nc(-c2c[nH]c3c(C#N)cccc23)cnc1O[C@@H]1CN[C@H](C)C1 [Compound 331]
1000 to 10000 | Cc1nc(-c2c[nH]c3c(F)cccc23)cnc1OCC(C)(C)O [Compound 332]
> 10000 | Cc1nc(-c2c[nH]c3c(C#N)cccc23)cnc1OCC1(O)CC1 [Compound 333]
1000 to 10000 | Cc1nc(-c2c[nH]c3c(C#N)cccc23)cnc1O[C@@H](C)[C@H](C)O [Compound 334]
1000 to 10000 | Cc1nc(-c2c[nH]c3c(C#N)cccc23)cnc1O [Compound 335]
100 to 1000 | Cc1nc(-c2csc3cc(F)ccc23)cnc1OCC(C)(C)O [Compound 336]
100 to 1000 | Cc1nc(-c2coc3c(Cl)cccc23)cnc1OCC(C)(C)O [Compound 337]
> 10000 | Cc1nc(-c2coc3ccccc23)cnc1OCC(C)(C)O [Compound 338]
> 10000 | Cc1nc(-c2c[nH]c3c(C#N)cccc23)cnc1OCCO [Compound 340]
1000 to 10000 | Cc1nc(-c2c[nH]c3c(C#N)cccc23)cnc1OCC(C)O (stereo not shown) [Compound 341]
> 10000 | CC(C)(O)COc1ncc(-c2c[nH]c3c(C#N)cccc23)nc1C1CC1 [Compound 342]
